The text below walks through data of ChEMBL document CHEMBL2021890, “A new class of prolylcarboxypeptidase inhibitors, part 1: discovery and evaluation” (Bioorg Med Chem Lett, 2012).

Data set [1] addresses T1, Lysosomal Pro-X carboxypeptidase (Mus musculus, UniProt Q7TMR0).
T1 sequence (Q7TMR0 whole entry): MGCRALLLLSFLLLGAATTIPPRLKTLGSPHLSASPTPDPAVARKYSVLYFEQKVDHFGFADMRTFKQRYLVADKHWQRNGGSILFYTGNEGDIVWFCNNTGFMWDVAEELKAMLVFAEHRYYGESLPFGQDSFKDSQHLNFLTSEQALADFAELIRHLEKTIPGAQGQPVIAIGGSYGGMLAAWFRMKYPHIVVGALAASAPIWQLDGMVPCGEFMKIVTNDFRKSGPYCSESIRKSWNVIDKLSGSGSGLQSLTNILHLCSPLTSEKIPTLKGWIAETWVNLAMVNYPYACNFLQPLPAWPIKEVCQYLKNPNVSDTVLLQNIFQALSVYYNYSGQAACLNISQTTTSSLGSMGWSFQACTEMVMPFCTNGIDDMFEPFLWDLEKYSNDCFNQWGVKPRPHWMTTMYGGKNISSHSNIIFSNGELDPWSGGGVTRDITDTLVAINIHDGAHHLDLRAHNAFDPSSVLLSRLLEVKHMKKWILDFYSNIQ
Nature of the data set: Inhibition of mouse PrCP.

Data set [2] in a line: Plasma protein binding in 10% human plasma assessed as percentage unbound. The data set is classed as ADME, cell-free.
Data set [3] can be described thus: Plasma protein binding in 10% mouse plasma assessed as percentage unbound. The class given is ADME, cell-free.
The nature of data set [4]: Metabolic stability in human liver microsomes after 30 mins by LC/MS analysis. The data set is classed as ADME, Microsome. The following applies: read-out: Stability.
Data set [5] can be described thus: Metabolic stability in mouse liver microsomes after 30 mins by LC/MS analysis. The class given is ADME, Microsome. Particulars: read-out: Stability.
Data set [6] can be described thus: Clearance in mouse at 0.5 mg/kg, iv and 1 mg/kg, po. Particulars: in vivo. The class given is ADME, organism-based.
Data set [7] is described as follows: Volume of distribution in mouse at 0.5 mg/kg, iv and 1 mg/kg, po. The class given is ADME, organism-based. Particulars: in vivo.
A short description of data set [8]: Half life in mouse at 0.5 mg/kg, iv and 1 mg/kg, po. The class given is ADME, organism-based. The following applies: in vivo.
The test system of data set [9] is Mus musculus. Nature of the data set: Dose normalized AUC in mouse at 1 mg/kg, po. The class given is ADME, organism-based. Further details: dose 1 mg/kg, route oral. Particulars: in vivo.
Data set [10] in a line: Oral bioavailability in mouse at 1 mg/kg. The class given is ADME, organism-based. Particulars: in vivo.
Data set [11] has as its target Mus musculus. In words: Ex-vivo inhibition of po dosed mouse PrCP in the absence of plasma by FRET analysis. The data set is classed as functional, organism-based.
Data set [12] concerns the target Mus musculus. Nature of the data set: Ex-vivo inhibition of PrCP in heat inactivated 25% plasma of po dosed mouse by FRET analysis. The class given is functional, organism-based.
Data set [13] concerns the target Mus musculus. Nature of the data set: Ex-vivo inhibition of PrCP in heat inactivated 100% plasma of po dosed mouse by FRET analysis. The class given is functional, organism-based.
Data set [14] is described as follows: Drug uptake in C57 mouse plasma at 30 mg/kg, po after 20 hrs by LC/MS analysis. The data set is classed as ADME, organism-based. Further details: dose 30 mg/kg, route oral.
Data set [15] in a line: Drug uptake in C57 mouse brain at 30 mg/kg, po after 20 hrs by LC/MS analysis. The following applies: read-out: Drug uptake. The class given is ADME, organism-based. Also on record: dose 30 mg/kg, route oral.
Data set [16] is described as follows: Ratio of drug level in brain to plasma in C57 mouse at 30 mg/kg, po after 20 hrs by LC/MS analysis. The data set is classed as ADME, organism-based. Particulars: read-out: BPR. Also on record: dose 30 mg/kg, route oral.
Data set [17] has as its system Mus musculus. Nature of the data set: Ex-vivo inhibition of PrCP in heat inactivated 100% plasma of C57 mouse assessed as target engagement at 30 mg/kg, po after 20 hrs by FRET analysis. The data set is classed as functional.
In data set [18] the test system is Mus musculus. In words: Ex-vivo inhibition of PrCP in heat inactivated 100% plasma of C57 mouse assessed as target engagement at 30 mg/kg, po after 20 hrs calculated as [cmpd]plasma/([cmpd]plasma + Ki (heat inactivated plasma))x100. The class given is functional.
Data set [19] can be described thus: Apparent permeability across pig LLC-PK1 cells at 1 uM. The class given is ADME, cell-based, Sus scrofa.
A short description of data set [20]: Drug uptake in C57 mouse plasma at 80 mg/kg, po after 20 hrs by LC/MS analysis. Further details: dose 80 mg/kg, route oral. The data set is classed as ADME, organism-based.
Data set [21] in a line: Drug uptake in C57 mouse brain at 80 mg/kg, po after 20 hrs by LC/MS analysis. Further details: dose 80 mg/kg, route oral. The data set is classed as ADME, organism-based. The following applies: read-out: Drug uptake.
The nature of data set [22]: Ratio of drug level in brain to plasma in C57 mouse at 80 mg/kg, po after 20 hrs by LC/MS analysis. The class given is ADME, organism-based. Also on record: dose 80 mg/kg, route oral. The following applies: read-out: BPR.
In data set [23] the test system is Mus musculus. Nature of the data set: Ex-vivo inhibition of PrCP in heat inactivated 100% plasma of C57 mouse assessed as target engagement at 80 mg/kg, po after 20 hrs by FRET analysis. The class given is functional.
For data set [24], the system named is Mus musculus. Nature of the data set: Ex-vivo inhibition of PrCP in heat inactivated 100% plasma of C57 mouse assessed as target engagement at 80 mg/kg, po after 20 hrs calculated as [cmpd]plasma/([cmpd]plasma + Ki (heat inactivated plasma))x100. The data set is classed as functional.

A word on the IC50: it is the concentration at which inhibition is half-maximal. Read a high IC50 as weaker potency. For orientation: fraction unbound means the share of the substance not bound to proteins or other matrix. As a reminder, the half-life is how long it takes for the measured level to halve. Read a low half-life as rapid decline. As a reminder, the bioavailability is the share of a dose that reaches the circulation, judged against a reference dose that is usually intravenous. Low values mean poor availability, high ones good availability. `Cc1cc(C2CCN(C(=O)[C@@H]3CN(C(C)(C)C)C[C@H]3c3ccc(F)cc3F)CC2)n(-c2ccc(Cl)c(Cl)c2)n1` had an IC50 in data set [1] of 1 nM. Besides, the fraction unbound in [2] stood at 0.02; in data set [3] it was 0.019. For the same molecule, the remaining at 0.5 h in [4] amounted to 45%; in [5], 18%. In data set [6], the clearance stood at 2.58 L/h/kg. In addition, the Vd in data set [7] amounted to 11 L/kg. In data set [8], the half-life is 2.7 h. In the data set on Mus musculus [9], the AUC/dose came out at 0.26 µM·kg·h/mg. In addition, in [10], the bioavailability turned out to be 38%. Further, the figures for the Ki at Mus musculus [11], on Mus musculus [12] and at Mus musculus [13] were 1.7 nM, 5.9 nM and 18.4 nM, respectively.

On to `Cc1cc(C2CCN(C(=O)[C@@H]3CN(C(C)(C)C)C[C@H]3c3ccc(F)cc3F)CC2)n(-c2ccc(Cl)cc2Cl)n1`, for which, in [1], the IC50 came to 1 nM. Besides, the free fraction (fraction unbound) in data set [2] amounted to 0.1; in data set [3], 0.16. Moreover, the figures for the remaining at 0.5 h in data set [4] and in data set [5] were 31% and 39%, respectively. The clearance in [6] came out at 3.42 L/h/kg. This molecule returned a Vd in [7] of 16 L/kg. The half-life in [8] is 3.1 h. This molecule also gave an AUC/dose with Mus musculus [9] of 0.31 µM·kg·h/mg. The same molecule returned a bioavailability in data set [10] of 61%. Further, the Ki on Mus musculus [11] stood at 1.1 nM; on Mus musculus [12], 2.3 nM; on Mus musculus [13], 6 nM.

Usually inhibition in vivo stands for the change of the read-out against control, counted positive when it falls. Usually Papp stands for the rate of passage across a membrane or cell layer, normalised by area and donor concentration. As for `Cc1cc(C2CCN(C(=O)[C@@H]3CN(C(C)(C)C)C[C@H]3c3ccc(F)cc3F)CC2)n(-c2cc(Cl)ccc2Cl)n1`, in [1], the IC50 was found to be 0.4 nM. The fraction unbound was determined as 0.11 in [2] and 0.17 in data set [3]. The remaining at 0.5 h was found to be 30% in [4] and 43% in data set [5]. The molecule also gave a clearance in data set [6] of 2.88 L/h/kg. For the same molecule, in data set [7], the Vd came to 13 L/kg. Besides, in data set [8], the half-life is 2.9 h. The same molecule had an AUC/dose in the data set on Mus musculus [9] of 0.19 µM·kg·h/mg. This molecule showed a bioavailability in data set [10] of 31%. For the same molecule, the Ki at Mus musculus [11] is 0.4 nM; at Mus musculus [12], 0.5 nM; at Mus musculus [13] it was 0.9 nM. Besides, the figures for the concentration at 20 h in [14] and in [15] were 0.547 µM and 0.698 µM, respectively. In addition, in [16], the Kp at 20 h came to 1.35. The figures for the inhibition in vivo at 30 mg/kg in the data set on Mus musculus [17] and in the data set on Mus musculus [18] were 97.7% and 99.8%, respectively. In addition, in data set [19], the Papp at 1 µM came out at 269 nm/s.

`Cc1cc(C2CCN(C(=O)[C@@H]3CN(C(C)(C)C)C[C@H]3c3ccc(F)cc3F)CC2)n(-c2ccc(F)c(F)c2)n1` came in with an IC50 in data set [1] of 9.1 nM. In addition, the fraction unbound in data set [2] is 0.25; in data set [3], 0.16. For the same molecule, the remaining at 0.5 h came to 39% in data set [4] and 52% in data set [5]. This molecule yielded a clearance in [6] of 4.26 L/h/kg. This molecule returned a Vd in [7] of 13 L/kg. The molecule also had a half-life in data set [8] of 1.9 h. Moreover, the AUC/dose in the data set on Mus musculus [9] was 0.2 µM·kg·h/mg. In data set [10], the bioavailability worked out at 46%. In addition, the Ki on Mus musculus [11] is 6.4 nM; at Mus musculus [12], 9.3 nM; at Mus musculus [13], 18.3 nM. For the same molecule, the concentration at 20 h in data set [20] turned out to be 1.91 µM; in [21], 1.18 µM. Besides, the Kp at 20 h in data set [22] was 0.63. Besides, the inhibition in vivo at 80 mg/kg in the data set with Mus musculus [23] was 99.4%; with Mus musculus [24], 99.1%. Further, in data set [19], the Papp at 1 µM stood at 280 nm/s.
